Test results published in EPA's ToxRefDB 2.

Assays:
rabbit [1] = conditions: Prenatal developmental toxicity study, new zealand white, Oral, Gavage/Intubation, dose end: 19 GD, group: maternal
rat [2] = conditions: Sub-acute repeat dose toxicity, sprague dawley, Oral, Gavage/Intubation, dose end: 28 day, group: systemic
rat [3] = conditions: Chronic toxicity, sprague dawley, Oral, Gavage/Intubation, dose end: 6 month, group: systemic
rabbit [4] = conditions: Prenatal developmental toxicity study; new zealand white; Oral; Gavage/Intubation; dose end: 19 GD; group: maternal; reproductive / offspring survival early / litter viability other / total litter loss + systemic / in life observation / body weight / body …
dog [5] = conditions: Sub-acute repeat dose toxicity, beagle, Oral, Gavage/Intubation, dose end: 4 week, group: systemic
rat [6] = conditions: Fertility (Segment I), sprague dawley, Oral, Gavage/Intubation, dose end: 7 GD
rat [7] = conditions: Prenatal developmental toxicity study, sprague dawley, Oral, Gavage/Intubation, dose end: 17 GD
mouse [8] = conditions: Carcinogenicity; b6c3f1; Oral; Water; dose end: 90 week; group: systemic; systemic / pathology microscopic / liver / adenoma/carcinoma combined + systemic / pathology microscopic / liver / carcinoma + systemic / …
rat [9] = conditions: Carcinogenicity, other, Oral, Water, dose end: 110 week, group: systemic
rat [10] = conditions: Developmental neurotoxicity study; other; Oral; Gavage/Intubation; dose end: 112 PND; group: cannot be grouped; systemic / in life observation / body weight / offspring (pup) weight gain
rat [11] = conditions: Prenatal developmental toxicity study, sprague dawley, Oral, Gavage/Intubation, dose end: 15 GD
dog [12] = conditions: Chronic toxicity; beagle; Oral; Feed; dose end: 104 week; group: cholinesterase; cholinesterase / cholinesterase / cholinesterase / erythrocyte cholinesterase (che) + cholinesterase / cholinesterase / cholinesterase / …
dog [13] = conditions: Chronic toxicity; beagle; Oral; Feed; dose end: 12 month; group: cholinesterase; cholinesterase / cholinesterase / cholinesterase / brain cholinesterase (che) + cholinesterase / cholinesterase / cholinesterase / …
mouse [14] = conditions: Carcinogenicity, cd1, Oral, Feed, dose end: 108 week
dog [15] = conditions: Chronic toxicity; beagle; Oral; Feed; dose end: 107 week; group: systemic; systemic / pathology gross / eye / [other] + systemic / pathology gross / eye / discolored + systemic / pathology microscopic / eye / [other…
rat [16] = conditions: Combined chronic toxicity/carcinogenicity, fischer, Oral, Feed, dose end: 105 week
rat [17] = conditions: Subchronic oral toxicity in rodents, fischer, Gavage/Intubation, dose end: 13 week, group: systemic
mouse [18] = conditions: Carcinogenicity, b6c3f1, Oral, Gavage/Intubation, dose end: 103 week, group: systemic
rat [19] = conditions: Sub-acute repeat dose toxicity, fischer, Oral, Gavage/Intubation, dose end: 16 day, group: systemic
mouse [20] = conditions: Subchronic oral toxicity in rodents, b6c3f1, Gavage/Intubation, dose end: 13 week, group: systemic
rat [21] = conditions: Carcinogenicity; fischer; Oral; Gavage/Intubation; dose end: 103 week; group: systemic; systemic / pathology microscopic / spleen / fibrosis + systemic / pathology microscopic / stomach / dysplasia + systemic / pathology …
mouse [22] = conditions: Sub-acute repeat dose toxicity, b6c3f1, Oral, Gavage/Intubation, dose end: 16 day, group: systemic
mouse [23] = conditions: Prenatal developmental toxicity study; cd1; Oral; Gavage/Intubation; dose end: 15 GD; group: maternal; systemic / in life observation / clinical signs / ataxia + systemic / in life observation / mortality / mortality
[24] = systemic / in life observation / body weight / body weight gain + systemic / in life observation / food consumption / food consumption + …
[25] = systemic / hematology / reticulocyte / reticulocyte + systemic / in life observation / clinical signs / hunched posture + systemic / in life…
[26] = systemic / in life observation / clinical signs / hunched posture + systemic / in life observation / clinical signs / piloerection
[27] = systemic / clinical chemistry / cholesterol / cholesterol + systemic / clinical chemistry / phosphorus / phosphate + systemic / clinical …
[28] = systemic / in life observation / clinical signs / hunched posture + systemic / pathology microscopic / liver / hypertrophy + systemic / in …
[29] = systemic / in life observation / clinical signs / dialated pupils + systemic / in life observation / clinical signs / defecation (diarrhea)
[30] = systemic / in life observation / clinical signs / dialated pupils + systemic / in life observation / clinical signs / defecation (diarrhea…
[31] = group: maternal, reproductive / reproductive performance / estrous cycle / abnormal
[32] = group: parental, systemic / in life observation / body weight / body weight gain + systemic / in life observation / clinical signs / hunched posture + …
[33] = group: developmental, systemic / in life observation / body weight / fetal weight
[34] = group: maternal, systemic / in life observation / body weight / body weight gain + systemic / in life observation / clinical signs / coma + systemic / in …
[35] = systemic / pathology microscopic / kidney / degeneration + systemic / pathology microscopic / stomach / ulcer
[36] = systemic / pathology microscopic / kidney / degeneration + systemic / pathology microscopic / stomach / ulcer + systemic / pathology …
[37] = group: cholinesterase, cholinesterase / cholinesterase / cholinesterase / erythrocyte cholinesterase (che) + cholinesterase / cholinesterase / cholinesterase / …
[38] = group: developmental, developmental / developmental malformation / bone / incomplete ossification
[39] = group: cholinesterase, cholinesterase / cholinesterase / cholinesterase / brain cholinesterase (che) + cholinesterase / cholinesterase / cholinesterase / …
[40] = group: systemic, systemic / organ weight / kidney / relative to body weight + systemic / pathology microscopic / heart / lymphoma malignant
[41] = group: systemic, systemic / organ weight / kidney / relative to body weight + systemic / pathology microscopic / heart / lymphoma malignant + systemic / …
[42] = group: systemic, systemic / pathology gross / harderian gland / degeneration + systemic / in life observation / body weight / body weight + systemic / in …
[43] = systemic / pathology gross / sperm measure / sperm count + systemic / pathology gross / sperm measure / sperm motility
[44] = systemic / in life observation / body weight / body weight + systemic / pathology microscopic / harderian gland / adenoma + systemic / …
[45] = systemic / in life observation / body weight / body weight
[46] = systemic / in life observation / body weight / body weight + systemic / in life observation / mortality / mortality + systemic / pathology …
[47] = systemic / in life observation / body weight / body weight + systemic / pathology gross / sperm measure / sperm count + systemic / pathology…
[48] = systemic / pathology gross / sperm measure / sperm count + systemic / pathology gross / sperm measure / sperm motility + systemic / …
[49] = systemic / in life observation / body weight / body weight + systemic / in life observation / clinical signs / defecation (diarrhea) + …

## O=C(N[C@@H](c1ccccc1)[C@@H]1CCCCN1)c1cccc(C(F)(F)F)c1Cl
Rabbit [1]; systemic / in life observation / body weight / body weight gain + systemic / in life observation / food consumption / food consumption
  LEL: 15 mg/kg/day
Rabbit [1]; [24]
  LOAEL: > 30 mg/kg/day
  NEL: 5 mg/kg/day
  NOAEL: ≥ 30 mg/kg/day
Rat [2]; [25]
  LOAEL: 25 mg/kg/day
  NOAEL: 5 mg/kg/day
Rat [2]; [26]
  LEL: 5 mg/kg/day
  NEL: < 5 mg/kg/day
Rat [3]; [27]
  LOAEL: > 50 mg/kg/day
  NOAEL: ≥ 50 mg/kg/day
Rat [3]; [28]
  LEL: 5 mg/kg/day
  NEL: < 5 mg/kg/day
Rabbit [4]
  LEL: 30 mg/kg/day
  LOAEL: 30 mg/kg/day
  NEL: 10 mg/kg/day
  NOAEL: 10 mg/kg/day
Dog [5]; [29]
  LEL: 1 mg/kg/day
  NEL: < 1 mg/kg/day
Dog [5]; [30]
  LOAEL: > 10 mg/kg/day
  NOAEL: ≥ 10 mg/kg/day
Rat [6]; [31]
  LEL: 50 mg/kg/day
  LOAEL: > 50 mg/kg/day
  NEL: 25 mg/kg/day
  NOAEL: ≥ 50 mg/kg/day
Rat [6]; [32]
  LEL: 25 mg/kg/day
  LOAEL: 25 mg/kg/day
  NEL: 5 mg/kg/day
  NOAEL: 5 mg/kg/day
Rat [7]; [33]
  LEL: 25 mg/kg/day
  LOAEL: 25 mg/kg/day
  NEL: 5 mg/kg/day
  NOAEL: 5 mg/kg/day
Rat [7]; group: maternal, systemic / in life observation / body weight / body weight gain
  LOAEL: 25 mg/kg/day
Rat [7]; [34]
  NEL: 5 mg/kg/day
  NOAEL: 5 mg/kg/day
Rat [7]; group: maternal, systemic / in life observation / body weight / body weight gain + systemic / in life observation / food consumption / food consumption
  LEL: 25 mg/kg/day

## C1COCCO1 [1,4-Dioxane]
Mouse [8]
  LEL: 380 mg/kg/day
  LOAEL: > 830 mg/kg/day
  NEL: < 380 mg/kg/day
  NOAEL: ≥ 830 mg/kg/day
Rat [9]; [35]
  LOAEL: 240 mg/kg/day
  NOAEL: < 240 mg/kg/day
Rat [9]; [36]
  LEL: 240 mg/kg/day
  NEL: < 240 mg/kg/day

## CN(C)CCCN1c2ccccc2Sc2ccc(Cl)cc21 [Chlorpromazine]
Rat [10]
  LEL: 3 mg/kg/day
  LOAEL: > 9 mg/kg/day
  NEL: 1 mg/kg/day
  NOAEL: ≥ 9 mg/kg/day

## CCOP(=S)(OCC)SCCSCC [Disulfoton]
Rat [11]; [37]
  LEL: 0.3 mg/kg/day
  LOAEL: 0.3 mg/kg/day
  NEL: 0.1 mg/kg/day
  NOAEL: 0.1 mg/kg/day
Rat [11]; [38]
  LEL: 1 mg/kg/day
  LOAEL: 1 mg/kg/day
  NEL: 0.3 mg/kg/day
  NOAEL: 0.3 mg/kg/day
Dog [12]
  LEL: 0.05 mg/kg/day
  LOAEL: 0.05 mg/kg/day
  NEL: 0.025 mg/kg/day
  NOAEL: 0.025 mg/kg/day
Dog [13]
  LEL: 0.094 mg/kg/day
  LOAEL: 0.094 mg/kg/day
  NEL: 0.013 mg/kg/day
  NOAEL: 0.013 mg/kg/day
Mouse [14]; [39]
  LEL: 2.4 mg/kg/day
  LOAEL: 2.4 mg/kg/day
  NEL: 0.6 mg/kg/day
  NOAEL: 0.6 mg/kg/day
Mouse [14]; [40]
  LEL: 0.15 mg/kg/day
  NEL: < 0.15 mg/kg/day
Mouse [14]; [41]
  LOAEL: > 2.4 mg/kg/day
  NOAEL: ≥ 2.4 mg/kg/day
Dog [15]
  LEL: 1.5 mg/kg/day
  LOAEL: 1.5 mg/kg/day
  NEL: 0.0375 mg/kg/day
  NOAEL: 0.0375 mg/kg/day
Rat [16]; [39]
  LEL: 0.04 mg/kg/day
  LOAEL: 0.04 mg/kg/day
  NEL: < 0.04 mg/kg/day
  NOAEL: < 0.04 mg/kg/day
Rat [16]; group: systemic, systemic / pathology gross / harderian gland / degeneration
  LOAEL: 0.65 mg/kg/day
Rat [16]; [42]
  LEL: 0.65 mg/kg/day
  NEL: 0.165 mg/kg/day
  NOAEL: 0.165 mg/kg/day

## OCC1CO1 (configuration not stated) [Glycidol]
Rat [17]; systemic / in life observation / body weight / body weight + systemic / pathology microscopic / brain / necrosis + systemic / in life …
  NOAEL: 100 mg/kg/day
Rat [17]; systemic / in life observation / body weight / body weight + systemic / pathology microscopic / brain / necrosis + systemic / pathology …
  LOAEL: 200 mg/kg/day
Rat [17]; [43]
  LEL: 25 mg/kg/day
  NEL: < 25 mg/kg/day
Mouse [18]; [44]
  LEL: 25 mg/kg/day
  NEL: < 25 mg/kg/day
  NOAEL: 25 mg/kg/day
Mouse [18]; systemic / in life observation / body weight / body weight + systemic / pathology microscopic / stomach / hyperplasia
  LOAEL: 50 mg/kg/day
Rat [19]; [45]
  LEL: 150 mg/kg/day
  LOAEL: 150 mg/kg/day
Rat [19]; [46]
  NEL: 75 mg/kg/day
  NOAEL: 75 mg/kg/day
Mouse [20]; [47]
  LEL: 19 mg/kg/day
  NEL: < 19 mg/kg/day
Mouse [20]; [48]
  LOAEL: 75 mg/kg/day
  NOAEL: 38 mg/kg/day
Rat [21]
  LEL: 37.5 mg/kg/day
  LOAEL: 37.5 mg/kg/day
  NEL: < 37.5 mg/kg/day
  NOAEL: < 37.5 mg/kg/day
Mouse [22]; systemic / in life observation / body weight / body weight + systemic / in life observation / clinical signs / defecation (diarrhea)
  LEL: 150 mg/kg/day
Mouse [22]; [49]
  LOAEL: > 600 mg/kg/day
  NEL: 75 mg/kg/day
  NOAEL: ≥ 600 mg/kg/day
Mouse [23]
  LEL: 200 mg/kg/day
  LOAEL: > 200 mg/kg/day
  NEL: 150 mg/kg/day
  NOAEL: ≥ 200 mg/kg/day
